Source: PMC7168264, “Modified Aminoglycosides Bind Nucleic Acids in High-Molecular-Weight Complexes” (Antibiotics, 2020)
Values joined by “and” are separate entries in the source; they are usually repeats but may differ in a detail not shown here. Equal entries are not always repeated. Where two headings read alike, the source gives them in different places.

Tests used:
[1] = target: HIV-1 RT WT (Human immunodeficiency virus type 1 group M subtype B, UniProt P04585); experiment: biochemical
Procedure: (§1) Plasmids pET-RT66 and p6H-RT51, which overexpress HIV-1 RT subunits p66 and His6-tagged p51, were generously provided by Samuel Wilson (NIH). Mutations K103N and Y181C were each introduced into pET-RT66 using QuikChange^TM mutagenesis. Subunits p66 and His6-p51 were overproduced in E. coli strains BL21/DE3 and DH5α, respectively, and the RT heterodimer (WT or mutant forms) was reconstituted in mixed lysates and purified essentially as described. Each overexpression strain was grown in LB medium with appropriate antibiotics at 37 °C until the culture reached an OD600 of 0.6, IPTG (0.5 mM) was added, and the culture was further incubated for 3.5 h to allow ample protein production. Cells (from 4 L culture) were pelleted and stored at −20 °C. All subsequent steps were performed at 4 °C. Each cell pellet was resuspended in 20 mL buffer A [50 mM Tris-HCl (pH 7.9), 60 mM NaCl, 10% glycerol, 1 mM βME, and protease inhibitors (Protease Inhibitor Cocktail, Roche Diagnostics)], and the cells were lysed using a French Press. The lysate was clarified by centrifugation at 5900 g for 15 min, and the protein concentration of each lysate was estimated using the Bradford assay. Based on these estimates, each p66 strain lysate was separately mixed with p51 strain lysate in a 3:1 ratio. Each mixture was passed through a Q-Sepharose column (2 mL, Bio-Rad), pre-equilibrated with buffer A, and the flow-through (containing HIV-1 RT) was collected. NaCl (0.5 M), imidazole (10 mM), and 4 mL of His-Bind nickel column resin (Ni-NTA Agarose, QIAGEN) pre-equilibrated in buffer B [50 mM Tris-HCl (pH 7.9), 500 mM NaCl, 10 mM imidazole, 10% glycerol, and 1 mM βME] were added, and the mixture was rotated for 1 h. The resin was poured into a column and washed with 10 column volumes (CV) of buffer B, 10 CV of buffer C [50 mM Tris-HCl (pH 7.9), 1 M NaCl, 10 mM imidazole, 10% glycerol, and 1 mM βME], and 10 CV of buffer D [50 mM Tris-HCl (pH 7.9), 1 M NaCl, 15 mM imidazole, 10% glycerol, and 1 mM βME]. Proteins were eluted from the column with an imidazole gradient (10–500 mM) in buffer B. Fractions (0.5 mL) were collected, and DTT (2 mM) and EDTA (5 mM) were added to each fraction. Fractions were analyzed by SDS-PAGE, and those containing p66 and p51 at a 1:1 ratio were pooled. The RT was further purified using a FPLC RESOURCE S column (6 mL, GE Healthcare). The protein was bound to the column, washed with 10 CV of buffer E [50 mM Tris-HCl (pH 6.5), 60 mM NaCl, 10% glycerol, and 1 mM βME], and eluted using a NaCl gradient. Fractions (0.5 mL) containing purified RT with p66 and p51 subunits at a 1:1 ratio were pooled, dialyzed against buffer F [50 mM Tris-HCl (pH 7.5), 100 mM NaCl, 1 mM βME, and 10% glycerol], and stored at −20 °C.
(§2) To assay multi-nucleotide incorporation by RT, 5′-[^32P]-labeled primer (~0.05 µM) was annealed to mRNA (0.33 µM, unless otherwise indicated), RT (HIV-1 or AMV; 32 nM) and the four deoxynucleotide triphosphates (dNTPs; 375 µM each) in buffer G [10 mM Tris-HCl (pH 7.5), 60 mM NH4Cl, 10 mM MgCl2, and 6 mM βME] were added, in the absence or presence of inhibitor (as indicated), and reactions were incubated at 37 °C for 10 min. An equal volume of stop buffer (95% formamide, 20 mM EDTA, 0.05% xylene cyanol, and 0.05% bromophenol blue) was added, and products were analyzed by denaturing 7% PAGE. The relative amount of the full-length cDNA product (y) was plotted as a function of inhibitor concentration, and the data were fit to the modified dose response equation y = a + b/[1 + (x/c)]

[2] = target: T1, HIV-1 RT K103N (Human immunodeficiency virus type 1 group M subtype B, UniProt P04585, K690N); experiment: Multi-nucleotide primer extension assay, K103N HIV-1 RT; assay type: biochemical; conditions: mean ± SEM from 3 or more independent experiments
T1 construct: overexpress HIV-1 RT subunits p66 and His6-tagged p51; made in house; host or cells: E. coli BL21/DE3 (p66) and DH5α (His6-p51)
Procedure: as §1, §2

[3] = target: T2, HIV-1 RT Y181C (Human immunodeficiency virus type 1 group M subtype B, UniProt P04585, Y768C); experiment: Multi-nucleotide primer extension assay, Y181C HIV-1 RT; assay type: biochemical
T2 construct: overexpress HIV-1 RT subunits p66 and His6-tagged p51; made in house; host or cells: E. coli BL21/DE3 (p66) and DH5α (His6-p51)
Procedure: as §1, §2

[4] = target: Radiolabeled DNA oligonucleotide; experiment: Ultrafiltration binding experiment, DNA oligonucleotide; conditions: fraction in complexes >300 kDa by ultrafiltration (300 kDa MWCO), buffer H, 25 °C, 15 min, read-out: apparent KD, DNA oligonucleotide
Procedure: (§3) For binding reactions, components were incubated in buffer H at 25 °C for 15 min. The fraction of bound 5′-[^32P]-labeled nucleic acid was evaluated using native 6% PAGE or ultrafiltration devices (Nanosep Omega, PALL Life Sciences).

[5] = target: Radiolabeled RNA oligonucleotide; experiment: Ultrafiltration binding experiment, RNA oligonucleotide; conditions: fraction in complexes >300 kDa by ultrafiltration (300 kDa MWCO), buffer H, 25 °C, 15 min, read-out: apparent KD, RNA oligonucleotide
Procedure: as §3

[6] = test system: radiolabeled 18mer DNA oligonucleotide; experiment: Gel mobility shift experiment (native PAGE); assay type: binding; conditions: compound 100 µM preincubated with 18mer DNA, native gel electrophoresis
Procedure: as §3

[7] = test system: avian myeloblastosis virus (AMV) reverse transcriptase (RT); experiment: Multi-nucleotide primer extension assay, AMV RT; assay type: biochemical; conditions: primer extension on RNA template, 10 min at 37 °C; read-out: IC50, full-length cDNA product, AMV RT
Procedure: as §2

[8] = test system: AMV RT; experiment: Single-nucleotide incorporation kinetics (quench-flow), AMV RT; assay type: biochemical, avian myeloblastosis virus; conditions: read-out: IC50, amplitude of single-nucleotide incorporation
Procedure: (§4) Single-nucleotide incorporation by RT was measured using a quench-flow machine (KinTek RQF-3). Typically, 5′-[^32P]-labeled primer (<0.05 µM) was annealed to mRNA (0.2 µM), equilibrated in buffer H [Tris-HCl (pH 7.5), 80 mM KCl, 20 mM MgCl2, 2 mM DTT] with RT (AMV or HIV-1, as indicated) in the absence or presence of inhibitor (as indicated), and rapidly mixed with dATP (variable concentration, as indicated). Each reaction was quenched with 0.5 M EDTA at various time points; the data were plotted and fit to a single exponential equation to obtain observed rate and amplitude.

[9] = target: T3, HIV-1 RT (Human immunodeficiency virus type 1 group M subtype B, UniProt P04585); experiment: Order-of-addition single-nucleotide incorporation, HIV-1 RT; assay type: biochemical; conditions: 20 min 37 °C, then combined 1 min
T3 construct: overexpress HIV-1 RT subunits p66 and His6-tagged p51; made in house; host or cells: E. coli BL21/DE3 (p66) and DH5α (His6-p51)
Procedure: as §4

| SMILES | IC50 [1] [nM] | IC50 [2] [µM] | IC50 [3] [nM] | Kd ([4]; listed as KAN-C12) [nM] | Kd [4] [nM] | Kd ([5]; listed as KAN-C12) [nM] | Kd [5] [nM] | Gel mobility shift of oligonucleotide [6] | IC50 [7] | IC50 ([8]; dATP at 10 µM) [nM] | IC50 ([8]; dATP at 150 µM) [nM] | Product formation, single-nucleotide incorporation ([9]; compound preincubated with RT) | Product formation, single-nucleotide incorporation ([9]; compound preincubated with primer:template in the absence of RT) |
| --- | --- | --- | --- | --- | --- | --- | --- | --- | --- | --- | --- | --- | --- |
| CCCCCCCCSC[C@H]1O[C@H](O[C@@H]2[C@@H](O)[C@H](O[C@H]3O[C@H](CN)[C@@H](O)[C@H](O)[C@H]3N)[C@@H](N)C[C@H]2N)[C@H](O)[C@@H](N)[C@@H]1O [KANB-C8] | 8000 ± 3000 | 7 ± 1 | 8000 ± 2000 |  |  |  |  |  |  |  |  |  |  |
| CCCCCCCCCCSC[C@H]1O[C@H](O[C@@H]2[C@@H](O)[C@H](O[C@H]3O[C@H](CN)[C@@H](O)[C@H](O)[C@H]3N)[C@@H](N)C[C@H]2N)[C@H](O)[C@@H](N)[C@@H]1O [KANB-C10] | 3800 ± 300 | 1.9 ± 0.3 | 1000 ± 600 |  |  |  |  |  |  |  |  |  |  |
| CCCCCCCCCCCCSC[C@H]1O[C@H](O[C@@H]2[C@@H](O)[C@H](O[C@H]3O[C@H](CN)[C@@H](O)[C@H](O)[C@H]3N)[C@@H](N)C[C@H]2N)[C@H](O)[C@@H](N)[C@@H]1O [KANB-C12] | 1900 ± 300 | 2 ± 0.2 | 500 ± 300 | 600 | ~1000 | 1100 | ~1000 | all signal was shifted to the well |  |  |  |  |  |
| CCCCCCCCCCCCSC[C@H]1O[C@H](O[C@@H]2[C@@H](O)[C@H](O[C@H]3O[C@H](CN)[C@@H](O)C[C@H]3N)[C@@H](N)C[C@H]2N)[C@H](O)[C@@H](N)[C@@H]1O [TOB-C12] | 300 ± 100 | 0.6 ± 0.1 | 500 ± 100 |  |  |  |  |  | ~1000 nM and 1600 nM | 13000 | 17000 | hindered product formation to a lesser degree | no detectable product |
| CCCCCCCCCCCCCCSC[C@H]1O[C@H](O[C@@H]2[C@@H](O)[C@H](O[C@H]3O[C@H](CN)[C@@H](O)C[C@H]3N)[C@@H](N)C[C@H]2N)[C@H](O)[C@@H](N)[C@@H]1O [TOB-C14] | 1900 ± 300 | 1.2 ± 0.6 | 1400 ± 400 |  |  |  |  |  | ~1000 nM and 1100 nM |  |  |  |  |
| NC[C@H]1O[C@H](O[C@H]2[C@H](O)[C@@H](O[C@H]3O[C@H](CSc4ccc5ccccc5c4)[C@@H](O)[C@H](N)[C@H]3O)[C@H](N)C[C@@H]2N)[C@H](N)C[C@@H]1O [TOB-Nap] | 40000 ± 5000 | 40 ± 11 | 12000 ± 4000 |  |  |  |  |  | 23000 nM |  |  |  |  |
